Test results: US10238619B1, “Composition and method of using the same” (priority 2017, dated 2019)

How the values were obtained:
[1] = tested on: persistent (biofilm) form of Borrelia burgdorferi; test: effect on biofilm-like colonies, crystal violet staining; format: cell-based, Borrelia burgdorferi B31; details: for efficacy against biofilm compared with combinations (Mix 1 and Mix 2): individual ingredient 0.075 mg/ml; for susceptibility of biofilm: 0.3 mg/ml, 72 hours
Method: (§1) Two Borrelia species, namely, Borrelia burgdorferi and Borrelia garinii were tested in this study. Low passage isolates of the B31 strain of B. burgdorferi and CIP103362 strain of B. garinii were obtained from the American Type Culture Collection (Manassas, Va.). The stocks of both species were cultured in commonly used conditions, i.e. medium such as Barbour-Stoner-Kelly H (BSK-H) supplemented with 6% rabbit serum (Sigma, St Louis, Mo.) without antibiotics at 33° C. with 5% CO2, in sterile screw-cap 15 mL polypropylene tubes with or without gentile shaking depends on type of experiment. B31 strain is an isolate from Ixodes dammini whereas CIP103362 strain is an isolate from Ixodes ricinus. Both strains are well known human pathogenic factors of Lyme disease. So far, Borrelia burgdorferi has been found in ticks from North America and Eurasia, while Borrelia garinii only in ticks in Eurasia.
(§2) The strains of B. burgdorferi and B. garinii were prepared for testing as described in the art (Sapi et al., 2011). Briefly, the strains were activated from original cryobank vials and inoculated into 10 mL BSK-H compete medium, and maintained at 33° C. For generation of homogeneous cultures of B. burgdorferi or B. garinii, bacterial cells were inoculated and maintained in a shaking incubator at 33° C. and 250 rpm, where there is no biofilm formation (Sapi et al., 2011; supported by own observation). For generation of biofilm-like colonies of B. burgdorferi or B. garinii, bacterial cells were inoculated in four-well chambers (BD Biosciences, Sparks, Md.) coated with rat-tail collagen type I and incubated for 1 week without shaking.
(§3) Evaluation of test compounds/mixtures on bacterial biofilm. Qualitative effect of the individual test compounds and their mixtures against biofilm-like colonies of B. burgdorferi and B. garinii was evaluated using commonly used and well accepted crystal violet (CV) staining method, according to protocol provided by Sapi et al. Briefly, 1×10^7 bacterial cells/mL from homogeneous cultures of spirochetes were grown on extracellular matrix proteins (i.e., collagen type I) coated four-well chambers and incubated for 1 week.
(§4) After the 1 week of incubation, biofilm-like colonies were treated with various compounds/mixtures. Control wells were treated with ethanol (i.e., 0.075-0.3 mg/ml) alone. For doxycycline, as a positive control, the final used concentration was 0.03% (v/v). The chambers were then incubated at 33° C. for 72 hours. The whole experiment was repeated three times for each strain and each concentration. Next, all wells were fixed with 500 μL of cold methanol-formalin (1:1) for 30 minutes and stained with 1 mL of crystal violet (0.1%) for 10 minutes. The biofilm-like colonies were carefully washed three times with 1×PBS and 1 mL of methanol was added to each well to extract a dye, which was measured at 595 nm wavelength.

[2] = tested on: persistent (biofilm) form of Borrelia garinii; test: as above; format: cell-based, Borrelia garinii CIP103362; details: for efficacy against biofilm compared with combinations (Mix 1 and Mix 2): individual ingredient 0.075 mg/ml; for susceptibility of biofilm: 0.3 mg/ml, 72 hours
Method: as §1, §2, §3, §4

[3] = tested on: active (spirochete) form of Borrelia burgdorferi; test: bacteriostatic/bactericidal effect on spirochetes, LIVE/DEAD BacLight (SYTO9/IP) fluorescence; format: cell-based, Borrelia burgdorferi B31; details: individual compound 0.3 mg/ml
Method: as §1, with “So far, Borrelia burgdorferi has been found in ticks from North America and Eurasia, while Borrelia garinii only in ticks in Eurasia.” left out
(§5) Evaluation of bacteriostatic and bactericidal effect of individual test compounds and their mixtures on test microorganisms. To determine what compound and/or mixture will have the bacteriostatic and/or bactericidal effect a fluorescence method was used according to Sapi et al. Briefly, 5×10^6 bacterial cells/mL of the homogenous bacterial suspension was inoculated into each sterile 1.8 mL test tightly caps screwed tubes containing 1 mL BSK-H medium, supplemented with the test compound/mixture of interest. […] The tubes were then incubated at 33° C. and viability was monitored at regular intervals for up to 72 hours. […]

[4] = tested on: active (spirochete) form of Borrelia garinii; test: as above; format: cell-based, Borrelia garinii CIP103362; details: individual compound 0.3 mg/ml
Method: as §1, with “So far, Borrelia burgdorferi has been found in ticks from North America and Eurasia, while Borrelia garinii only in ticks in Eurasia.” left out
as §5

Compound | efficacy against biofilm compared with combinations (Mix 1 and Mix 2) [1] | efficacy against biofilm compared with combinations (Mix 1 and Mix 2) [2] | susceptibility of biofilm [1] | bactericidal effect ([3]; after 6 hours of incubation) | bactericidal effect ([3]; after 24 hours of incubation) | susceptibility of biofilm [2] | bactericidal effect ([4]; after 6 hours of incubation) | bactericidal effect ([4]; after 24 hours of incubation)
C=C(C)[C@@H]1CC=C(C)C(=O)C1 [R-carvone] | lower efficacy against biofilm than their combinations | lower efficacy against biofilm than their combinations | – | – | – | – | – | –
C=CCc1ccc(O)c(OC)c1 [eugenol] | lower efficacy against biofilm than their combinations | lower efficacy against biofilm than their combinations | susceptible | 50% | 100% | susceptible | 50% | 100%
CC(C)=CCCC(C)=CC=O [citral] | lower efficacy against biofilm than their combinations | lower efficacy against biofilm than their combinations | susceptible | – | – | susceptible | – | –
CCCCC/C=C\C/C=C\CCCCCCCC(=O)O [linoleic acid] | lower efficacy against biofilm than their combinations | lower efficacy against biofilm than their combinations | – | – | – | – | – | –
